# Results taken from patent US20110136916A1, “6-SHOGAOL FOR USING IN A METHOD FOR THE TREATMENT OF LEUKEMIA” (China Pharmaceutical University, priority 2009, published 2011).
# System: peripheral blood lymphocytes (PBMC) of clinical leukemia patients
# Test: Annexin V/PI apoptosis of PBMC from leukemia patients
# Assay type: cell-based, human
# Details: 24 hours
# Description: After application by the research group and approval by the Ethics Committee of the hospital, the leukemia patients (healthy volunteers) signed the informed consent and their fresh blood was collected and transferred into heparin anticoagulation tubes, then the same volume of serum free D-Hank buffer (preheated at 37° C.) was added to re-suspend the cells, and the suspension was added to the pre-laid human lymphocyte separating medium (preheated at 37° C.), and the volume ratio between the lymphocyte separating medium and the cell suspension should be no lower than 1:1, and the mixture was centrifuged at room temperature (20-30° C.) at 500×g by a horizontal centrifuge for 30 minutes. The upper layer plasma was removed and the white fog layer in the middle was carefully collected and transferred to 5 mL (or 1-2 times of the volume) PBS (or serum free buffer for cell culture), then it was centrifuged at 200×g or 1000 rpm for 10 minutes at room temperature (20-30° C.), and the supernatant was removed, and the obtained precipitation was the peripheral blood lymphocytes (PBMC). The cells were rinsed twice according to the above-mentioned operations at 500×g by the horizontal centrifuge for 10 minutes at room temperature (20-30° C.), subsequently the cells were collected and their cell vitality was detected by using dye exclusion method for living cells (Trypan blue).
# The cells were added to a 24-well plate in 3×10^5 cells/mL/well and different concentrations of 6-shogaol (10 and 20 μM) for treatment for 24 hours after they were incubated for 24 hours. Negative control group (the group without drug) and the treatment group with 6-shogaol were set up for PBMCs from different individuals respectively. After the cells were treated with 6-shogaol for 24 hours, they were transferred into 10 mL glass centrifuge tubes and centrifuged at 500 rpm (or 100×g) for 5 minutes to remove the supernatant. The cells were then rinsed with 0.01 M PBS at 500 rpm (or 100×g) for 5 minutes twice. Subsequently, after adding binding solution and staining according to the directions for use of Annexin V/PI double staining kit (BD Company), flow cytometry analysis (Becton Dickinson FACScan Flow Cytometer) was carried out. The FACS data were analyzed by professional operators of the flow cytometer by using FLOWJO software (Tree Star, Calif.) software, the apoptotic rate was counted by the sum of early apoptosis and late apoptosis, and the results were shown in Table 4 and Table 5.
compound,measurement,setting,value
CCCCC/C=C/C(=O)CCc1ccc(O)c(OC)c1 [6-shogaol],induction of apoptosis of PBMC of leukemia patients (t-test),"30 cases of leukemia patients, 10 and 20 μM",significantly induce the apoptosis
same,Apoptotic rate of 10 μM 6-shogaol,"PBMC of patient P1, 10 μM",38.5 ± 3.7a %
same,Apoptotic rate of 20 μM 6-shogaol,"PBMC of patient P1, 20 μM",56.9 ± 2.2a %
same,Apoptotic rate of 10 μM 6-shogaol,"PBMC of patient P2, 10 μM",27.6 ± 1.3a %
same,Apoptotic rate of 20 μM 6-shogaol,"PBMC of patient P2, 20 μM",50.1 ± 5.4a %
same,Apoptotic rate of 10 μM 6-shogaol,"PBMC of patient P3, 10 μM",47.9 ± 1.6a %
same,Apoptotic rate of 20 μM 6-shogaol,"PBMC of patient P3, 20 μM",72.9 ± 3.1a %
same,Apoptotic rate of 10 μM 6-shogaol,"PBMC of patient P4, 10 μM",35.7 ± 3.8a %
same,Apoptotic rate of 20 μM 6-shogaol,"PBMC of patient P4, 20 μM",69.7 ± 1.6a %
same,Apoptotic rate of 10 μM 6-shogaol,"PBMC of patient P5, 10 μM",40.5 ± 6.1a %
same,Apoptotic rate of 20 μM 6-shogaol,"PBMC of patient P5, 20 μM",61.9 ± 4.2a %
same,Apoptotic rate of 10 μM 6-shogaol,"PBMC of patient P6, 10 μM",29.3 ± 1.7a %
same,Apoptotic rate of 20 μM 6-shogaol,"PBMC of patient P6, 20 μM",52.7 ± 2.3a %
same,Apoptotic rate of 10 μM 6-shogaol,"PBMC of patient P7, 10 μM",44.6 ± 3.8a %
same,Apoptotic rate of 20 μM 6-shogaol,"PBMC of patient P7, 20 μM",75.9 ± 1.7a %
same,Apoptotic rate of 10 μM 6-shogaol,"PBMC of patient P8, 10 μM",31.3 ± 2.7a %
same,Apoptotic rate of 20 μM 6-shogaol,"PBMC of patient P8, 20 μM",64.7 ± 2.4a %
same,Apoptotic rate of 10 μM 6-shogaol,"PBMC of patient P9, 10 μM",27.5 ± 2.9a %
same,Apoptotic rate of 20 μM 6-shogaol,"PBMC of patient P9, 20 μM",44.8 ± 3.9a %
same,Apoptotic rate of 10 μM 6-shogaol,"PBMC of patient P10, 10 μM",42.4 ± 3.1a %
same,Apoptotic rate of 20 μM 6-shogaol,"PBMC of patient P10, 20 μM",73.5 ± 3.7a %
same,Apoptotic rate of 10 μM 6-shogaol,"PBMC of patient P11, 10 μM",29.7 ± 2.4a %
same,Apoptotic rate of 20 μM 6-shogaol,"PBMC of patient P11, 20 μM",50.1 ± 3.3ac %
same,Apoptotic rate of 10 μM 6-shogaol,"PBMC of patient P12, 10 μM",49.3 ± 4.1a %
same,Apoptotic rate of 20 μM 6-shogaol,"PBMC of patient P12, 20 μM",80.8 ± 5.1ac %
same,Apoptotic rate of 10 μM 6-shogaol,"PBMC of patient P13, 10 μM",55.9 ± 2.7a %
same,Apoptotic rate of 20 μM 6-shogaol,"PBMC of patient P13, 20 μM",82.9 ± 2.5ac %
same,Apoptotic rate of 10 μM 6-shogaol,"PBMC of patient P14, 10 μM",26.7 ± 1.9a %
same,Apoptotic rate of 20 μM 6-shogaol,"PBMC of patient P14, 20 μM",39.7 ± 2.6ac %
same,Apoptotic rate of 10 μM 6-shogaol,"PBMC of patient P15, 10 μM",34.5 ± 3.1a %
same,Apoptotic rate of 20 μM 6-shogaol,"PBMC of patient P15, 20 μM",47.9 ± 4.2ab %
same,Apoptotic rate of 10 μM 6-shogaol,"PBMC of patient P16, 10 μM",39.3 ± 2.3a %
same,Apoptotic rate of 20 μM 6-shogaol,"PBMC of patient P16, 20 μM",46.7 ± 1.6ab %
same,Apoptotic rate of 10 μM 6-shogaol,"PBMC of patient P17, 10 μM",44.6 ± 3.8a %
same,Apoptotic rate of 20 μM 6-shogaol,"PBMC of patient P17, 20 μM",55.9 ± 1.7ab %
same,Apoptotic rate of 10 μM 6-shogaol,"PBMC of patient P18, 10 μM",33.1 ± 3.7a %
same,Apoptotic rate of 20 μM 6-shogaol,"PBMC of patient P18, 20 μM",54.7 ± 2.6ac %
same,Apoptotic rate of 10 μM 6-shogaol,"PBMC of patient P19, 10 μM",37.9 ± 4.9a %
same,Apoptotic rate of 20 μM 6-shogaol,"PBMC of patient P19, 20 μM",51.8 ± 7.9ac %
same,Apoptotic rate of 10 μM 6-shogaol,"PBMC of patient P20, 10 μM",52.9 ± 2.7a %
same,Apoptotic rate of 20 μM 6-shogaol,"PBMC of patient P20, 20 μM",63.6 ± 1.2ab %
same,Apoptotic rate of 10 μM 6-shogaol,"PBMC of patient P21, 10 μM",31.5 ± 4.3a %
same,Apoptotic rate of 20 μM 6-shogaol,"PBMC of patient P21, 20 μM",44.5 ± 2.4ab %
same,Apoptotic rate of 10 μM 6-shogaol,"PBMC of patient P22, 10 μM",20.5 ± 3.1a %
same,Apoptotic rate of 20 μM 6-shogaol,"PBMC of patient P22, 20 μM",38.5 ± 2.1ac %
same,Apoptotic rate of 10 μM 6-shogaol,"PBMC of patient P23, 10 μM",36.2 ± 5.7a %
same,Apoptotic rate of 20 μM 6-shogaol,"PBMC of patient P23, 20 μM",67.1 ± 3.7ac %
same,Apoptotic rate of 10 μM 6-shogaol,"PBMC of patient P24, 10 μM",42.7 ± 2.4a %
same,Apoptotic rate of 20 μM 6-shogaol,"PBMC of patient P24, 20 μM",58.7 ± 3.9ac %
same,Apoptotic rate of 10 μM 6-shogaol,"PBMC of patient P25, 10 μM",47.8 ± 2.9a %
same,Apoptotic rate of 20 μM 6-shogaol,"PBMC of patient P25, 20 μM",69.1 ± 3.3ac %
same,Apoptotic rate of 10 μM 6-shogaol,"PBMC of patient P26, 10 μM",43.3 ± 4.9a %
same,Apoptotic rate of 20 μM 6-shogaol,"PBMC of patient P26, 20 μM",56.9 ± 5.2ac %
same,Apoptotic rate of 10 μM 6-shogaol,"PBMC of patient P27, 10 μM",30.9 ± 1.7a %
same,Apoptotic rate of 20 μM 6-shogaol,"PBMC of patient P27, 20 μM",47.6 ± 3.6ab %
same,Apoptotic rate of 10 μM 6-shogaol,"PBMC of patient P28, 10 μM",39.6 ± 2.2a %
same,Apoptotic rate of 20 μM 6-shogaol,"PBMC of patient P28, 20 μM",56.3 ± 3.8ac %
same,Apoptotic rate of 10 μM 6-shogaol,"PBMC of patient P29, 10 μM",33.7 ± 3.5a %
same,Apoptotic rate of 20 μM 6-shogaol,"PBMC of patient P29, 20 μM",42.4 ± 2.9ab %
same,Apoptotic rate of 10 μM 6-shogaol,"PBMC of patient P30, 10 μM",28.6 ± 2.9a %
same,Apoptotic rate of 20 μM 6-shogaol,"PBMC of patient P30, 20 μM",51.9 ± 4.2ac %
